Values quoted from earlier work in patent US10307441B2, “Pharmaceutical formulations of nitrite and uses thereof” (Board of Supervisors of Louisiana State University and …, priority 2009, dated 2019).

[1] = assumed mid-range PK constant for simulation

SMILES: O=NO [NaNO2, Sodium nitrite]
- oral bioavailability (assumed PK constant for simulation): 100%
- clearance [1]: 60.375 L/h
- half-life [1]: 45 min
